In patent US9353423B2, “HCV genotype 6 replicons” (priority 2012, dated 2016):
Like-named read-outs stand apart in the source and are kept apart here.

How the values were obtained:
Pi-GT1b-Rluc replicon = assay: Replicon antiviral assay, transient transfection, luciferase activity (GT1b); assay type: cell-based, Hepatitis C virus genotype 1b; conditions: Hepatitis C virus
Experimental: (§1) Replicon RNA were electroporated into 1C cells as described above. After transfection, cells were quickly transferred into 100 mL of pre-warmed culture medium, and 90 μl was seeded in 384-well plates at a density of 2,000 cells/well. Cells were treated with three-fold serial drug dilutions at 10 different concentrations. Cell plates were incubated at 37° C. for 3 days, after which culture medium was removed and cells were assayed for luciferase activity as markers for replicon levels. Luciferase expression was quantified using a commercial luciferase assay (Promega). Luciferase levels were converted into percentages relative to the levels in the untreated controls (defined as 100%), and data were fitted to the logistic dose-response equation y=a/[1+(x/b)^c] using XLFit4 software (IDBS, Emeryville, Calif.).
(§2) Five different classes of HCV inhibitors as listed in the first column were evaluated for their antiviral activities against Pi-GT6a-Rluc and Pi-GT1b-Rluc replicons in a high throughput 384-well transient transfection assay, by measuring luciferase activity (Table 5). The data represents an average of at least two independent experiments with standard deviations.

GT6aRluc-K34R replicon = assay: Replicon antiviral assay, transient transfection, luciferase activity (GT6a, NS4A K34R); assay type: cell-based, Hepatitis C virus genotype 6a; conditions: for EC50: Hepatitis C virus, 1C cells, 384-well transient transfection, mean ± SD of at least two experiments
Experimental: as §1, §2

GT6aRluc-K272R replicon = assay: Replicon antiviral assay, transient transfection, luciferase activity (GT6a, NS3 K272R); assay type: cell-based, Hepatitis C virus genotype 6a; conditions: for EC50: Hepatitis C virus, 1C cells, 384-well transient transfection, mean ± SD of at least two experiments
Experimental: as §1, §2

Pi-GT6a-Rluc replicon = assay: Replicon antiviral assay, luciferase-encoding GT6a replicon (Table 4); assay type: cell-based, Hepatitis C virus genotype 6a; conditions: for EC50: Hepatitis C virus, GT6A, 72 h, read-out: GT6a EC50
Experimental: as §1

[1] = Table 5, 1C cells, 384-well transient transfection, mean ± SD of at least two experiments, read-out: GT1bRluc EC50
[2] = read-out: GT6aRluc-K34R EC50, Table 5
[3] = read-out: GT6aRluc-K272R EC50, Table 5
[4] = 72 h, Table 4, 1C cells, 384-well, 3 days, mean ± SD, read-out: GT1b EC50
[5] = Table 4, 1C cells, 384-well, 3 days, mean ± SD, adaptive mutation not stated
[6] = Table 5, read-out: GT6aRluc-K34R EC50
[7] = Table 5, read-out: GT6aRluc-K272R EC50

SMILES | EC50 (Pi-GT1b-Rluc replicon; [1]) [nM] | EC50 (GT6aRluc-K34R replicon; [2]) [nM] | GT6a(K34R)/1b EC50 Ratio (GT6aRluc-K34R replicon; Table 5) | EC50 (GT6aRluc-K272R replicon; [3]) [nM] | GT6a(K272R)/1b EC50 ratio (GT6aRluc-K272R replicon; Table 5) | EC50 (Pi-GT1b-Rluc replicon; [4]) [nM] | EC50 (Pi-GT6a-Rluc replicon; [5]) [nM] | GT6a/GT1b EC50 ratio (Pi-GT6a-Rluc replicon; Table 4) | EC50 (GT6aRluc-K34R replicon; [6]) [nM] | EC50 (GT6aRluc-K272R replicon; [7]) [nM] | antiviral activity against GT6a compared with GT1b (Pi-GT6a-Rluc replicon; summary of Table 4) | EC50 (Pi-GT6a-Rluc replicon) [nM]
COc1ccc2c(O[C@@H]3C[C@H]4C(=O)N[C@]5(C(=O)O)C[C@H]5/C=C\CCCCC[C@H](NC(=O)OC5CCCC5)C(=O)N4C3)cc(-c3csc(NC(C)C)n3)nc2c1 [BILN-2061] | 0.99 ± 0.1 | 17 ± 9 | 17.2 | 17 | 17.2 | – | – | – | – | – | – | –
CC(C)(C)NC(=O)N[C@H](C(=O)N1C[C@H]2[C@@H]([C@H]1C(=O)NC(CC1CCC1)C(=O)C(N)=O)C2(C)C)C(C)(C)C (some centres unmarked) [Boceprevir, boceprevir] | 181 ± 42 | 168 ± 21 | 0.9 | 185 ± 42 | 1 | 188 ± 42 | 177 ± 21 | 0.9 | – | – | – | –
Fc1ccccc1-c1nc2ccn(Cc3ccc(-c4ccc(C(F)(F)F)cc4C(F)(F)F)nn3)cc-2n1 [Tegobuvir, tegobuvir] | 2.6 ± 0.2 | – | 45.8 | – | 42.3 | 2.6 ± 0.2 | 119 ± 6 | 46 | 119 ± 6 | 110 ± 21 | – | –
CN(C)CCN(C)[C@H]1COc2ccccc2-c2c(C3CCCCC3)c3ccc(C(=O)O)cc3n2C1 [MK-3281] | 534 ± 47 | – | 2.4 | – | 2.5 | – | – | – | 1280 ± 471 | 1310 ± 635 | – | –
COC(=O)N[C@H](C(=O)N1CCC[C@H]1c1nc(-c2ccc(-c3ccc(-c4c[nH]c([C@@H]5CCCN5C(=O)[C@@H](NC(=O)OC)C(C)C)n4)cc3)cc2)c[nH]1)C(C)C [Daclatasvir, daclatasvir] | 0.034 ± 0.018 | – | 1.2 | – | 2.4 | 0.034 ± 0.018 | 0.06 ± 0.03 | 1.8 | 0.04 ± 0.01 | 0.08 ± 0.04 | – | –
CC1=CC[C@H](C(=O)N(c2cc(C#CC(C)(C)C)sc2C(=O)O)[C@H]2CC[C@](O)(CO[C@H]3CCOC3)CC2)CC1 [Compound C] | 3.5 ± 0.3 | – | 250.6 | – | 210.3 | 3.5 ± 0.3 | 877 ± 4 | 251 | 877 ± 4 | 736 ± 18 | – | –
CCC[C@H](NC(=O)[C@@H]1[C@H]2CCC[C@H]2CN1C(=O)[C@@H](NC(=O)[C@@H](NC(=O)c1cnccn1)C1CCCCC1)C(C)(C)C)C(=O)C(=O)NC1CC1 [Telaprevir] | 428 ± 22 | – | 0.8 | – | 0.5 | 428 ± 22 | 349 ± 20 | 0.8 | 349 ± 20 | 208 ± 41 | – | –
CNC(=O)c1c(-c2ccc(F)cc2)oc2cc(N(CCO)S(C)(=O)=O)c(C3CC3)cc12 [HCV-796] | 20 ± 5.5 | – | 1.1 | – | 1.1 | 20 ± 5.5 | 21 ± 0.5 | 1.0 | 21 | 21 | retained activity against GT6a | –
C=C[C@@H]1C[C@]1(NC(=O)[C@@H]1C[C@@H]2CN1C(=O)[C@H](C(C)(C)C)NC(=O)O[C@@H]1C[C@H]1CCCCCc1nc3ccc(OC)cc3nc1O2)C(=O)NS(=O)(=O)C1CC1 [MK-5172] | 0.74 ± 0.07 | – | 1.9 | – | 4.1 | 0.74 ± 0.07 | – | 3.1 | 1.4 ± 0.3 | 3 ± 0.4 | – | 2.3 ± 0.3
CC(C)OC(=O)[C@H](C)N[P@](=O)(OC[C@H]1O[C@@H](n2ccc(=O)[nH]c2=O)[C@](C)(F)[C@@H]1O)Oc1ccccc1 [Sofosbuvir, sofosbuvir] | 39 ± 1.1 | – | 0.4 | – | 0.4 | 39 ± 1.1 | 14 ± 4.1 | 0.4 | 14 ± 4 | 14 ± 5 | – | –
CCC1C[C@]1(NC(=O)[C@@H]1C[C@@H](Oc2cc(-c3csc(NC(C)C)n3)nc3c(Cl)c(OCCN4CCOCC4)ccc23)CN1C(=O)[C@@H](NC(=O)O[C@@H]1C[C@@H]2C[C@@H]2C1)C(C)(C)C)C(=O)O (some centres unmarked) [Compound A] | – | – | – | – | – | 8.3 ± 1.6 | 72 ± 25 | 8.7 | – | – | – | –
CCc1cc(CC[C@]2(C3CCCC3)CC(O)=C(Cc3nc4nc(C)cc(C)n4n3)C(=O)O2)cc(CC)n1 [Filibuvir, filibuvir] | 112 ± 13 | – | >40 | – | 31.6 | 112 ± 13 | – | 32 | > 4440 | 3540 ± 93 | – | 3540 ± 93
COC(=O)N[C@H](C(=O)N1CC2(CC2)C[C@H]1c1nc(-c2ccc3c(c2)C(F)(F)c2cc(-c4ccc5cc([C@@H]6[C@H]7CC[C@H](C7)N6C(=O)[C@@H](NC(=O)OC)C(C)C)[nH]c5c4)ccc2-3)c[nH]1)C(C)C [Compound B] | – | – | – | – | – | 0.007 ± 0.003 | 0.79 ± 0.05 | 113 | – | – | – | –
